Reference: patent US6645514B1, “Increasing skin cell renewal with water-soluble Vitamin E” (Access Business Group International, LLC, priority 2002, dated 2003)

Key:
skin [1] = experiment: skin cell-renewal (exfoliation) rate after topical application; type: in vivo, human
Procedure: (§1) Skin irritation, expressed as a “Sting” percentage, was also determined. The increase in skin cell renewal rate and irritation level was measured substantially according to the procedure described in Soap/Cosmetics/Chemical Specialties for September 1993 at pp. 54-58 and 76.

skin [2] = experiment: skin irritation level (Sting %) after topical application; type: in vivo, human
Procedure: as §1

[3] = cited from earlier work
[4] = 0.5 wt % active, composition pH 5.65
[5] = 1.0 wt % active, composition pH 7.21

| Compound | Cell-Renewal Rate % (skin [1]; 5 wt % active, composition pH 3) [%] | Cell-Renewal Rate % (skin [1]; [4]) [%] | Cell-Renewal Rate % (skin [1]; [5]) [%] | Irritation Level (Sting %) (skin [2]; [4]) [%] | Irritation Level (Sting %) (skin [2]; [5]) [%] | irritation to the skin relative to Lactic Acid (skin [2]; at pH 7.21, relative to Lactic Acid) | times less irritating to the skin than Lactic Acid (skin [2]; relative to Lactic Acid 5 wt %, pH 3) | solubility in water [3] |
| --- | --- | --- | --- | --- | --- | --- | --- | --- |
| CC(O)C(=O)O (centres unmarked) [Lactic Acid, reference compound] | 31.7 | – | – | – | – | – | – | – |
| Cc1c(C)c2c(c(C)c1OP(=O)(O)O)CC[C@@](C)(CCC[C@H](C)CCC[C@H](C)CCCC(C)C)O2 [VEP, Sodium Vitamin E Phosphate] | – | 15.2 | 16.6 | 17.3 | 10.7 | about one-twentieth | at least 4.5 times | soluble in water |
